Assay results: patent US7157222B2, “Method of cryopreservation of tissues by vitrification” (Organ Recovery Systems, Inc., priority 1999, dated 2007)

Tests used:
[1] = system: rabbit jugular vein ring segments; assay: Maximal contractile response of vein rings in vascular smooth muscle bath; assay type: cell-based; conditions: for Maximal Physiological Responses, Control: fresh vein rings (n = 15); for Maximal Physiological Responses, Control / Maximal Physiological Responses, Vitrified: Mean ± SEM; for Maximal Physiological Responses, % of corresponding fresh controls: vein rings vitrified with VS55 versus fresh vein rings; for Maximal Physiological Responses, Vitrified: vein rings vitrified with vitrification solution VS55 (n = 26)
Procedure: Vein rings, which are about 4 mm long segments of rabbit external jugular veins, are vitrified in VS55 by the method described above for longer external jugular vein segments, except that perfusion is not used. […] The baseline tension of all vein rings is adjusted to 0.25 to 0.75 g. Changes in tension are recorded by force transducers. After 1 hour of equilibration, the vein rings are pretested with potassium chloride for contraction. After rinsing with KH solution, the vein rings are equilibrated for another 30 minutes prior to the start of experiment. During a relaxation experiment, contraction of the vein rings is produced by 10^−6M norepinephrine and, after the contractile response plateaus, cumulative concentrations of acetylcholine (10^−10M to 10^−4M) are added to the bathing medium to induce the endothelium dependent relaxation response. In the current study, histamine, bradykinin, angiotensin II, and norepinephrine are tested in rabbit jugular vein ring segments vitrified with VS55 and fresh vein rings. Both histamine and bradykinin produce contraction in the vein via their local receptors. Norepinephrine acts directly on the adrenoceptor, while angiotensin II binds to AT receptors and acts through local renin-angiotensin systems.

artery ring segments = assay: Maximal contractile response of artery rings; assay type: cell-based; conditions: for Maximal Physiological Responses, Vitrified: artery rings vitrified with VS55 (norepinephrine n = 37, phenylephrine n = 23); for Maximal Physiological Responses, Vitrified / Maximal Physiological Responses, Control: Mean ± SEM; for Maximal Physiological Responses, % of corresponding fresh controls: artery rings vitrified with VS55 versus fresh controls; for Maximal Physiological Responses, Control: fresh rings (norepinephrine n = 16, phenylephrine n = 12)
Procedure: Vein rings, which are about 4 mm long segments of rabbit external jugular veins, are vitrified in VS55 by the method described above for longer external jugular vein segments, except that perfusion is not used. After being rewarmed, the vein rings are mounted between two stainless steel wire hooks and suspended in a vascular smooth muscle bath containing 5 ml of Krebs Henseleit (KH) solution, which is gassed continuously with 95% O2 and 5% CO2 at 37° C. The baseline tension of all vein rings is adjusted to 0.25 to 0.75 g. Changes in tension are recorded by force transducers. After 1 hour of equilibration, the vein rings are pretested with potassium chloride for contraction. After rinsing with KH solution, the vein rings are equilibrated for another 30 minutes prior to the start of experiment. During a relaxation experiment, contraction of the vein rings is produced by 10^−6M norepinephrine and, after the contractile response plateaus, cumulative concentrations of acetylcholine (10^−10M to 10^−4M) are added to the bathing medium to induce the endothelium dependent relaxation response.
Artery rings are vitrified in VS55 by the method described above for vein rings. After being rewarmed, norepinephrine and phenylephrine are tested in artery ring segments vitrified with VS55 and fresh artery rings.

Molecule	Maximal Physiological Responses, Control [1] [g]	Maximal Physiological Responses, % of corresponding fresh controls [1] [%]	Maximal Physiological Responses, Vitrified [1] [g]	Maximal Physiological Responses, Vitrified (artery ring segments) [g]	Maximal Physiological Responses, % of corresponding fresh controls (artery ring segments) [%]	Maximal Physiological Responses, Control (artery ring segments) [g]
NCCc1c[nH]cn1 [Histamine, histamine]	1.78 ± 0.19	87.1	1.55 ± 0.27	–	–	–
NC[C@H](O)c1ccc(O)c(O)c1 [Norepinephrine, norepinephrine]	0.99 ± 0.12	83.8	0.83 ± 0.14	2.58 ± 0.23	90.8	2.84 ± 0.38
CNC[C@H](O)c1cccc(O)c1 [Phenylephrine, phenylephrine]	–	–	–	2.23 ± 0.29	88.3	2.53 ± 0.45
angiotensin II (DRVYIHPF; Angiotensin-2; UniProt P01019 25-32, looked up)	0.58 ± 0.06	84.5	0.49 ± 0.09	–	–	–
